“Also recorded” adds a separate entry of the source.
How the values were obtained:
Conditions in all cases: for activity as galactosyl acceptor: UDP-Gal as galactosyl donor, 20 mM substrates, 5 mM MnCl2, 30° C.
GmGolS = assay: Galactinol synthase / fagopyritol synthase enzyme assay with recombinant GmGolS; format: biochemical, Glycine max
Experimental: (§1) Both the crude soluble protein extracts from E. coli and the purified GolS recombinant proteins were used in enzyme assays. […] In galactinol synthase assays, UDP-Gal was substituted with 20 mM galactinol as the galactosyl donor. Assays were run at 30° C. for 30 to 300 minutes. Reactions were stopped by addition of 50 μL of 100% ethanol.
Both crude soluble protein extracts from E. coli containing the recombinant GmGolS protein and purified recombinant GmGolS protein were used in enzyme assays. […] Assays were run at 30° C. for 30 to 300 minutes. Reactions were stopped by addition of 50 μL of 100% ethanol.
(§2) The reactions were stopped after 3 hours with the addition of 50 μL of 100% EtOH.
(§3) To determine the concentration of Mn^2+ in which the enzymes had the greatest activity, multiple assays were completed varying the amount of Mn^2+. […] After 3 hours, the reactions were stopped with the addition of 50 μL of 100% EtOH.
(§4) The reactions were completed using 1-2 μg of enzyme in a 50 μL solution containing 20 mM galactosyl acceptor, 20 mM UDP-galactose, 50 mM HEPES, pH 7.0, 2 mM DTT, 5 mM Mn^2+ at 30° C. After 3 hours, the reactions were stopped with the addition of 50 of 100% EtOH.
(§5) All samples from the assays were analyzed by gas chromatography. All were prepared for analysis in the same way. […] The solution was then filtered using NanoSep tubes and 100 μL was transferred to a silation vial. The samples were then dried under nitrogen and desiccated over P2O5 overnight. The dried samples were then derivitized with 100 μL of TMSI:pyridine (1:1, v/v) and then analyzed by gas chromatography.

FeGolS-1 = assay: Fagopyritol synthase / galactinol synthase enzyme assay with recombinant FeGolS-1 (products by gas chromatography); format: biochemical, Fagopyrum esculentum
Experimental: Both the crude soluble protein extracts from E. coli and the purified GolS recombinant proteins were used in enzyme assays. […] In galactinol synthase assays, UDP-Gal was substituted with 20 mM galactinol as the galactosyl donor. Assays were run at 30° C. for 30 to 300 minutes. Reactions were stopped by addition of 50 μL of 100% ethanol. […] The reactions were stopped after 3 hours with the addition of 50 μL of 100% EtOH. […] To determine the concentration of Mn^2+ in which the enzymes had the greatest activity, multiple assays were completed varying the amount of Mn^2+. […] After 3 hours, the reactions were stopped with the addition of 50 μL of 100% EtOH. […] After 3 hours, the reactions were stopped with the addition of 50 of 100% EtOH. All samples from the assays were analyzed by gas chromatography. All were prepared for analysis in the same way. […] The solution was then filtered using NanoSep tubes and 100 μL was transferred to a silation vial. The samples were then dried under nitrogen and desiccated over P2O5 overnight. The dried samples were then derivitized with 100 μL of TMSI:pyridine (1:1, v/v) and then analyzed by gas chromatography.

FeGolS-2 = FeGolS-2 (Fagopyrum esculentum, UniProt Q7XZ07); assay: Fagopyritol synthase / galactinol synthase enzyme assay with recombinant FeGolS-2 (products by gas chromatography); format: biochemical
Chain of FeGolS-2 (Q7XZ07 entry or part of it): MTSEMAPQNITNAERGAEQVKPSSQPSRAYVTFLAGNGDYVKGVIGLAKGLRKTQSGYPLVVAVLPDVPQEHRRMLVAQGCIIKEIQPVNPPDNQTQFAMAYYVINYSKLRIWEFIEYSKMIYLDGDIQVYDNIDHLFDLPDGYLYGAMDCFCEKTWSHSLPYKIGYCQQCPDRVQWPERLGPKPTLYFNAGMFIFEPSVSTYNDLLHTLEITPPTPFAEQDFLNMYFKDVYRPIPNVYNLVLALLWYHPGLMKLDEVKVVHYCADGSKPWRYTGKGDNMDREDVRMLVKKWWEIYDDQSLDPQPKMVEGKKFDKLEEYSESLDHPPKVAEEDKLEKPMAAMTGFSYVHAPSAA
Experimental: as §1, §2, §3, §4, §5

[1] = 20 mM galactosyl donor instead of UDP-Gal

SMILES	activity as galactosyl acceptor (FeGolS-1)	activity as galactosyl acceptor (GmGolS)	other results
OC1C(O)C(O)C(O)C(O)C1O [D-chiro-Inositol, D-chiro-inositol]	can be used as galactosyl acceptors	–	activity as galactosyl acceptor (GmGolS; listed as D-chiro-inositol): catalyzed the biosynthesis of fagopyritol B1, but not fagopyritol A1; also recorded: catalyzed the biosynthesis of fagopyritol B1; also recorded: can be used as galactosyl acceptors; activity as galactosyl acceptor (FeGolS-1; listed as D-chiro-inositol): catalyzed the biosynthesis of fagopyritol B1
COC1[C@@H](O)[C@@H](O)C(O)[C@H](O)[C@H]1O (stereo partly drawn) [D-ononitol, 1D-4-O-methyl-myo-inositol]	–	not active	–
CO[C@H]1[C@H](O)[C@@H](O)[C@@H](O)[C@H](O)[C@@H]1O [D-Pinitol, 1D-3-O-methyl-chiro-inositol]	–	not active	–
O[C@H]1[C@H](O)[C@@H](O)[C@H](O)[C@@H](O)[C@@H]1O [scyllo-inositol]	can be used as galactosyl acceptors	reduced activity; also recorded: can be used as galactosyl acceptors	activity as galactosyl acceptor (FeGolS-2): can be used as galactosyl acceptors
COC1[C@H](O)[C@H](O)C(O)[C@H](O)[C@H]1O (stereo partly drawn) [D-bornesitol, 1D-1-O-methyl-myo-inositol]	can be used as galactosyl acceptors	reduced activity	activity as galactosyl acceptor (GmGolS; listed as bornesitol): can be used as galactosyl acceptors; activity as galactosyl acceptor (FeGolS-2): can be used as galactosyl acceptors
OC1C(O)C(O)C(O)C(O)C1O (stereo not drawn) [epi-inositol]	–	no activity	–
COC1[C@@H](O)[C@H](O)C(O)[C@H](O)[C@H]1O (some centres unmarked) [sequoyitol, 5-O-methyl-myo-inositol]	–	not active	–
OC[C@H]1O[C@H](OC2[C@@H](O)[C@H](O)C(O)[C@H](O)[C@@H]2O)[C@H](O)[C@@H](O)[C@H]1O (some centres unmarked) [Galactinol, galactinol]	–	–	activity as galactosyl donor (GmGolS; galactosyl donor instead of UDP-Gal): not active; activity as galactosyl donor (FeGolS-1; [1]): Neither FeGolS-1 nor FeGolS-2 was active; activity as galactosyl donor (FeGolS-2; [1]): Neither FeGolS-1 nor FeGolS-2 was active
CO[C@H]1[C@H](O)[C@@H](O)[C@H](O)[C@H](O)[C@H]1O [L-quebrachitol, 1L-2-O-methyl-chiro-inositol]	–	not active	–
O[C@H]1[C@H](O)[C@@H](O)[C@H](O)[C@@H](O)[C@H]1O [myo-Inositol, myo-inositol]	catalyzed the biosynthesis of galactinol; also recorded: can be used as galactosyl acceptors	catalyzed the biosynthesis of galactinol; also recorded: can be used as galactosyl acceptors	activity as galactosyl acceptor (FeGolS-2): catalyzed the biosynthesis of galactinol; also recorded: can be used as galactosyl acceptors
OC1C(O)C(O)C(O)C(O)C1O [L-chiro-inositol]	can be used as galactosyl acceptors	active; also recorded: can be used as galactosyl acceptors	–
